Key:
[1] = target: T1, 5-lipoxygenase (5-LO) (Rattus norvegicus, UniProt P12527); assay: RBL-1 cell 5-lipoxygenase and cyclooxygenase - Homogenate (Procedure I); assay type: biochemical
T1 construct: endogenous in cells; host or cells: intact RBL-1 (rat basophilic leukemia) cells, stimulated with calcium ionophore A23187
T1 sequence (P12527 1-673): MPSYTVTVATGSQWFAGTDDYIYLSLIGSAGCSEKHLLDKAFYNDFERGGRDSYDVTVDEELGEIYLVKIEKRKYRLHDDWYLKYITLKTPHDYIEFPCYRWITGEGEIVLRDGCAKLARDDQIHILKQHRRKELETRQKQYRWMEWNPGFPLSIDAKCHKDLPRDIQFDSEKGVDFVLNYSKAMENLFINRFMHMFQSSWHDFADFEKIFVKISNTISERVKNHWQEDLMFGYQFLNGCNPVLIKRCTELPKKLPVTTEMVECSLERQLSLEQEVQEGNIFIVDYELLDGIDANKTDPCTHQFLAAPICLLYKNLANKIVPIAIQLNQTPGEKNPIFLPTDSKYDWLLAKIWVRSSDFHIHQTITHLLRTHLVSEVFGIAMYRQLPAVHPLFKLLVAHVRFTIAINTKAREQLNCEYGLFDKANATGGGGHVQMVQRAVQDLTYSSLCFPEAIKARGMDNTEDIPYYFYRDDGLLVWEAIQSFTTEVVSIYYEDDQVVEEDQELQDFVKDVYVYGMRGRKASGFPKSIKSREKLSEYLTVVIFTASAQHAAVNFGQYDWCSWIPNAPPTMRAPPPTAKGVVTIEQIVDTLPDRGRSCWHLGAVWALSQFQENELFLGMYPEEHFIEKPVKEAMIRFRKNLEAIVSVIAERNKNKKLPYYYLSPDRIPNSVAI
Procedure: RBL-1 cell 5-lipoxygenase and cyclooxugenase - Homogenate
Rat basophilic leukemia cells (RBL-1; 5×10^7 viable cells/mL) were disrupted by homogenization on ice (four 20 sec bursts) with a Brinkman polytron. […] The homogenate was then centrifuged at 9,220×g for 48 minutes at 4° C. The pellet was discarded and the supernatant was saved as the source of enzymes. The supernatant was pre-incubated for five minutes at 37° C. in the presence of 2 mM of CaCl2 and compound or vehicle (1% DMSO). The conversion of AA into products by CO and LO was initiated by adding 10 μL (50 μCi) of 1-^14 C-AA to each tube and incubated at 37° C. for 20 minutes. The reaction was stopped by adjusting the pH of each sample to 3 to 3.5 with 2M formic acid. Samples were extracted with three volumes of chloroform to isolate the products of 5-LO formed during the reaction. Fractions were dried under nitrogen, then resuspended in 40 μL of chloroform and spotted onto silica gel HL plates. The plates were developed in A-9 solvent. The dried plates were analyzed using a Bioscan Imaging TLC scanner to determine the percentage of radiolabelled M converted to 5-HETE (LO product) and PGD2 (CO product) in each sample.

[2] = target: T1, 5-lipoxygenase (5-LO); assay: RBL-1 cell 5-lipoxygenase and cyclooxygenase - Whole cells (Procedure II); assay type: cell-based
Procedure: RBL-1 Cell 5-Lipoxygenase and cyclooxygenase - Whole cells
The ability to inhibit 5-LO and CO in intact RBL-1 cells was also evaluated. […] Cells were collected by centrifugation, washed once in HBSS, and resuspended at a concentration of 1×10^5 cells/mL. Cells were incubated in the presence of vehicle or drug then centrifuged at 800×g for 10 minutes at 4° C. The supernatant was removed by aspiration and the cells were resuspended in 0.5 mL of HBSS. […] The conversion of M to 5-LO products was initiated by the addition of 10 μL (50 uCi) of 1-^14 C-AA. Products were isolated by acidification and extraction, followed by thin layer chromatography analysis as described above. Radioactive areas corresponding to authentic 5-LO (5-HETE) and CO (PGD2) products were quantitated by the Bioscan 2000 Imaging System.

[3] = target: T2, Human Prostaglandin H2 Synthase Typ II (Cox-2) (Homo sapiens, UniProt P35354); assay: Human Prostaglandin H2 Synthase Typ II (Cox-2) Whole Cell Assay, ECV-304 cells (Procedure III); assay type: cell-based; conditions: ECV-304 whole cells; for IC50: PGE2 produced, read-out: Procedure III (COX-2) Wh Cell IC50; for inhibition at 10 µM: read-out: Procedure III (COX-2) Wh Cell, percent inhibition of PGE2 produced
T2 construct: endogenous in cells; host or cells: ECV-304 cells treated with PMA and ionomycin for 16 hours
T2 sequence (P35354 18-604): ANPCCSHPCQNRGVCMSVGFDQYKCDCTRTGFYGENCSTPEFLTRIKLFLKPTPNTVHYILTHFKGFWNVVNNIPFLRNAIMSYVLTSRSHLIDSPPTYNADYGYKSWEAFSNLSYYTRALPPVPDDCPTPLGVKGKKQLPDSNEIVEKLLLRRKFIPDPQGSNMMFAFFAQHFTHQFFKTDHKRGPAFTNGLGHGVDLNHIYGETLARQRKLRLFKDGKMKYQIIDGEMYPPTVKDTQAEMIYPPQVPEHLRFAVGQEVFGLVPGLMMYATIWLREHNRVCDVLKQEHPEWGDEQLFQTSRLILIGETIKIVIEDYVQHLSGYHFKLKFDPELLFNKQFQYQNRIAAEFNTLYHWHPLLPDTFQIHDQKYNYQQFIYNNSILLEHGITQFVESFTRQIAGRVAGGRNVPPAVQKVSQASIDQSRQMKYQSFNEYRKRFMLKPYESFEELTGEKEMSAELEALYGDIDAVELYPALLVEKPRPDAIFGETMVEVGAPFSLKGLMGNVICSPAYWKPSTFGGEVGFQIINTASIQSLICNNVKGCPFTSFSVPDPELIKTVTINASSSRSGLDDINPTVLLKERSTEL
Procedure: Human Prostaglandin H2 Synthase Typ II (Cox-2) Whole Cell Assay (Multiple Concentrations)
ECV-304 (human, endothelial, umbilical cord) cells are maintained in culture in a suitable medium, and are trypsinized and plated at a density of 1×10^6 cells per well of a 6 well plate prior to assay. Approximately 28 hours later, 50 μg/ml PMA and […] ionomycin (both final concentrations) are added to each well and incubated for an additional 16 hours. Vehicle or test compounds are incubated with the cells for five minutes prior to initiation of Cox-2 enzyme activity by the addition of 30 μM arachidonic acid. Ten minutes later, an aliquot of the supernatant is withdrawn and the amount of PGE2 present quantitated by radioimmunoassay. Activity, reported as percent inhibition of PGE2 produced, is calculated as follows: […]

[4] = RBL-1 homogenate supernatant, 5-HETE, read-out: Procedure I (5-LO) Homog. IC50
[5] = intact RBL-1 cells, 5-HETE, read-out: Procedure II (5-LO) Wh Cell IC50

SMILES	IC50 [1, 4] [nM]	IC50 [2, 5] [nM]	IC50 [3] [nM]	inhibition at 10 µM [3] [%]	IC50 [1] [nM]	IC50 [2] [nM]
CS(=O)(=O)Nc1ccc(Oc2ccc(F)c(Cl)c2)s1 [Example 6]	30	890	5300	–	–	–
CSc1ccc(Oc2ccc(NS(C)(=O)=O)s2)cc1 [Example 4]	100	660	–	39	–	–
Cc1cc(Oc2ccc(NS(C)(=O)=O)s2)ccc1F [Example 11]	20	310	1180	–	–	–
Cc1cccc(Oc2ccc(NS(C)(=O)=O)s2)c1 [Example 15]	120	310	1690	–	–	–
O=S(=O)(Nc1ccc(Oc2ccccc2)s1)c1ccccc1 [Example 27]	100	900	–	44	–	–
CS(=O)(=O)Nc1ccc(Oc2ccccc2)s1 [Example 2]	70	470	4220	–	–	–
CS(=O)(=O)Nc1ccc(Oc2ccc(S(C)(=O)=O)cc2)s1 [Example 5]	1800	38500	–	0	–	–
Cc1cc(F)ccc1Oc1ccc(NS(C)(=O)=O)s1 [Example 16]	90	1090	1900	–	–	–
CS(=O)(=O)Nc1ccc(Sc2ccccc2)s1 [Example 28]	190	700	–	33	–	–
CS(=O)(=O)Nc1ccc(Oc2cccc3ccccc23)s1 [Example 21]	70	800	3000	–	–	–
CS(=O)(=O)Nc1ccc(Oc2cc(C(F)(F)F)ccc2Cl)s1 [Example 19]	–	–	–	29	140	1800
CCCCS(=O)(=O)Nc1ccc(Oc2ccccc2)s1 [Example 24]	360	1120	10000	–	–	–
CS(=O)(=O)Nc1ccc(Cc2ccccc2)s1 [Example 31, N-(5-Benzylthien-2-yl)methanesulfonamide]	110	380	–	45	–	–
CS(=O)(=O)Nc1ccc(-c2ccc(F)cc2)s1 [Example 32, N-5-[(4-fluoro)phenyl-thien-2-yl]methanesulfonamide]	150	2100	–	3	–	–
CS(=O)(=O)Nc1ccc(Oc2cccc(F)c2)s1 [Example 3]	160	490	–	13	–	–
CS(=O)(=O)Nc1ccc(Oc2ccc(F)cc2Br)s1 [Example 17]	60	1400	5290	–	–	–
CS(=O)(=O)Nc1ccc(Oc2ccc(Cl)cc2Cl)s1 [Example 13]	90	650	5800	–	–	–
CC(C)c1cccc(Oc2ccc(NS(C)(=O)=O)s2)c1 [Example 20]	610	4700	–	36	–	–
CC(C)S(=O)(=O)Nc1ccc(Oc2ccccc2)s1 [Example 25]	50	1040	–	16	–	–
CCCCCCCCS(=O)(=O)Nc1ccc(Oc2ccccc2)s1 [Example 26]	300	2900	–	8	–	–
CS(=O)(=O)Nc1ccc(Oc2cccc(Cl)c2)s1 [Example 8]	60	500	10300	–	–	–
CS(=O)(=O)Nc1ccc(SC2CCCCC2)s1 [Example 29]	70	2390	9100	–	–	–
CS(=O)(=O)Nc1ccc(Oc2cccc(C(F)(F)F)c2)s1 [Example 10]	60	780	1020	–	–	–
CS(=O)(=O)Nc1ccc(Oc2ccc(F)cc2F)s1 [Example 14]	150	730	1970	–	–	–
CS(=O)(=O)Nc1ccc(Oc2cccc3c2CCCC3)s1 [Example 23]	–	–	10000	–	–	–
CS(=O)(=O)Nc1ccc(Oc2ccc(Cl)cc2)s1 [Example 12]	75	660	18000	–	–	–
COc1ccc(Oc2ccc(NS(C)(=O)=O)s2)cc1 [Example 7]	20	1450	–	0	–	–
CS(=O)(=O)Nc1ccc(Oc2ccc3ccccc3c2)s1 [Example 22]	60	770	10000	–	–	–
Cc1cccc(Oc2ccc(NS(C)(=O)=O)s2)c1C [Example 9]	60	660	–	54	–	–
CCCCCSc1ccc(NS(C)(=O)=O)s1 [Example 30]	40	630	2760	–	–	–

From patent US5783597A, “2,5-disubstituted thiophenes: inhibitors of 5-lipoxygenase and inducible cyclooxygenase (COX-2) enzymes, composition and use” (Ortho Pharmaceutical Corporation, priority 1997, dated 1998)
